# Test results as given in publication PMC5247774 (Bioconjugate Chemistry, 2016).
# Biological target: T1, SERPINB3 (SB3) (Homo sapiens, UniProt P29508)
# T1 sequence (P29508 1-390): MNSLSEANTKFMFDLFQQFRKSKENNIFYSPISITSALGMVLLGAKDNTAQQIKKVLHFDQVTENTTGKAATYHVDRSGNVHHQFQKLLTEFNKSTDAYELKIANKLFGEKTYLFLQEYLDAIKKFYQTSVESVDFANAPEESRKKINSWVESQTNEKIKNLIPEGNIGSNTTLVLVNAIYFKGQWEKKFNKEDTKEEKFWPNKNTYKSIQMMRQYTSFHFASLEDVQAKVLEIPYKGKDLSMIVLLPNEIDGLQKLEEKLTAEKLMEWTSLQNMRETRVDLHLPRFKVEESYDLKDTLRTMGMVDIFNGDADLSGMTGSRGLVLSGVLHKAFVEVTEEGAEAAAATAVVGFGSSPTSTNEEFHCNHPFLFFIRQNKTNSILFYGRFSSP
# Assay type: binding
# Details: SPR, increasing concentrations
sequence,measurement,value
CPNFDWDPNNSNAGFAPDLQHDPFFGLP [CysPreS1],interaction with SB3 (in words),did not reveal any interaction
